One may read the IC50 as the concentration that inhibits the measured activity by half.

In the test the target is HSP90 (Homo sapiens, UniProt P07900). The test can be described thus: HSP90 inhibition (HSP90 IC50). In kind it is biochemical.
With `COc1cccc(C(=O)N[C@H]2C[C@H]3CC[C@@H](C2)N3c2ccc(C(=O)NCc3ccc(N4CCOCC4)cc3)cn2)c1C` [6-[3-endo-({[2-methyl-3-(methyloxy)phenyl]carbonyl}amino)-8-azabicyclo[3.2.1]oct-8-yl]-N-[(4-morpholin-4-ylphenyl)methyl]pyridine-3-carboxamide], the IC50 was less than 500 nM. With `COc1cccc(C(=O)N[C@H]2C[C@H]3CC[C@@H](C2)N3c2ccc(C(=O)NCc3ccc(N4CCNCC4)cc3)cn2)c1C` [6-[3-endo-({[2-methyl-3-(methyloxy)phenyl]carbonyl}amino)-8-azabicyclo[3.2.1]oct-8-yl]-N-[(4-piperazin-1-ylphenyl)methyl]pyridine-3-carboxamide] the figure was less than 500 nM; with `COc1cccc(C(=O)N[C@H]2C[C@H]3CC[C@@H](C2)N3c2ccc(C(=O)NCc3ccc(N4CCCC4)cc3)cn2)c1C` [6-[3-endo-({[2-methyl-3-(methyloxy)phenyl]carbonyl}amino)-8-azabicyclo[3.2.1]oct-8-yl]-N-[(4-pyrrolidin-1-ylphenyl)methyl]pyridine-3-carboxamide], 500 to 999 nM.

Molecule `COc1cccc(C(=O)N[C@H]2C[C@H]3CC[C@@H](C2)N3c2ccc(C(=O)NCc3cnc(C)cn3)cn2)c1C` [6-[3-endo-({[2-methyl-3-(methyloxy)phenyl]carbonyl}amino)-8-azabicyclo[3.2.1]oct-8-yl]-N-[(5-methylpyrazin-2-yl)methyl]pyridine-3-carboxamide] returned an IC50 of less than 500 nM.

Consider `COc1cccc(C(=O)NC2CC3CCC(C2)N3c2ccc(C(=O)NC3CCCNC3)cn2)c1C` (stereo not drawn) [6-[3-endo-({[2-methyl-3-(methyloxy)phenyl]carbonyl}amino)-8-azabicyclo[3.2.1]oct-8-yl]-N-piperidin-3-ylpyridine-3-carboxamide], for which the IC50 was 500 to 999 nM. Consider `COc1cccc(C(=O)N[C@H]2C[C@H]3CC[C@@H](C2)N3c2ccc(C(=O)NC3CCNCC3)cn2)c1C` [6-[3-endo-({[2-methyl-3-(methyloxy)phenyl]carbonyl}amino)-8-azabicyclo[3.2.1]oct-8-yl]-N-piperidin-4-ylpyridine-3-carboxamide], for which the IC50 is less than 500 nM.

For `CCCNC(=O)c1ccc(N2[C@@H]3CC[C@H]2C[C@@H](NC(=O)c2cccc(OC)c2C)C3)nc1` [6-[3-endo-({[2-methyl-3-(methyloxy)phenyl]carbonyl}amino)-8-azabicyclo[3.2.1]oct-8-yl]-N-propylpyridine-3-carboxamide], the IC50 is 1000 to 2000 nM. With `COc1ccc([C@@H](C)NC(=O)c2ccc(N3C4CCC3CC(NC(=O)c3cccc(OC)c3C)C4)nc2)cc1` (stereo partly drawn) [6-[3-endo-({[2-methyl-3-(methyloxy)phenyl]carbonyl}amino)-8-azabicyclo[3.2.1]oct-8-yl]-N-{(1R)-1-[4-(methyloxy)phenyl]ethyl}pyridine-3-carboxamide] the figure was 2000 to 10000 nM; with `COc1cccc([C@H](C)NC(=O)c2ccc(N3C4CCC3CC(NC(=O)c3cccc(OC)c3C)C4)nc2)c1` (stereo partly drawn) [6-[3-endo-({[2-methyl-3-(methyloxy)phenyl]carbonyl}amino)-8-azabicyclo[3.2.1]oct-8-yl]-N-{(1S)-1-[3-(methyloxy)phenyl]ethyl}pyridine-3-carboxamide], less than 500 nM; with `COc1cccc(C(=O)NC2CC3CCC(C2)N3c2ccc(C(=O)N[C@@H](C)c3ccc(N4CCN(C)CC4)cc3)cn2)c1C` (stereo partly drawn) [6-[3-endo-({[2-methyl-3-(methyloxy)phenyl]carbonyl}amino)-8-azabicyclo[3.2.1]oct-8-yl]-N-{(1S)-1-[4-(4-methylpiperazin-1-yl)phenyl]ethyl}pyridine-3-carboxamide], less than 500 nM.

`COc1cccc(C(=O)NC2CC3CCC(C2)N3c2ccc(C(=O)N[C@H]3CCC[C@@H]3OCc3ccccc3)cn2)c1C` (stereo partly drawn) [6-[3-endo-({[2-methyl-3-(methyloxy)phenyl]carbonyl}amino)-8-azabicyclo[3.2.1]oct-8-yl]-N-{(1S,2S)-2-[(phenylmethyl)oxy]cyclopentyl}pyridine-3-carboxamide] gave an IC50 of 2000 to 10000 nM. In the case of `COc1cccc(C(=O)N[C@H]2C[C@H]3CC[C@@H](C2)N3c2ccc(C(=O)NCc3ccccc3N3CCN(C)CC3)cn2)c1C` [6-[3-endo-({[2-methyl-3-(methyloxy)phenyl]carbonyl}amino)-8-azabicyclo[3.2.1]oct-8-yl]-N-{[2-(4-methylpiperazin-1-yl)phenyl]methyl}pyridine-3-carboxamide], the IC50 fell in the range of 1000 to 2000 nM. Turning to `COc1ccccc1CNC(=O)c1ccc(N2[C@@H]3CC[C@H]2C[C@@H](NC(=O)c2cccc(OC)c2C)C3)nc1` [6-[3-endo-({[2-methyl-3-(methyloxy)phenyl]carbonyl}amino)-8-azabicyclo[3.2.1]oct-8-yl]-N-{[2-(methyloxy)phenyl]methyl}pyridine-3-carboxamide], the IC50 is 1000 to 2000 nM. With `COc1cccc(C(=O)N[C@H]2C[C@H]3CC[C@@H](C2)N3c2ccc(C(=O)NCc3cc(OC)c(OC)c(OC)c3)cn2)c1C` [6-[3-endo-({[2-methyl-3-(methyloxy)phenyl]carbonyl}amino)-8-azabicyclo[3.2.1]oct-8-yl]-N-{[3,4,5-tris(methyloxy)phenyl]methyl}pyridine-3-carboxamide] the figure was 1000 to 2000 nM.

`COc1cccc(CNC(=O)c2ccc(N3[C@@H]4CC[C@H]3C[C@@H](NC(=O)c3cccc(OC)c3C)C4)nc2)c1` [6-[3-endo-({[2-methyl-3-(methyloxy)phenyl]carbonyl}amino)-8-azabicyclo[3.2.1]oct-8-yl]-N-{[3-(methyloxy)phenyl]methyl}pyridine-3-carboxamide] yielded an IC50 of 2000 to 10000 nM. On to `COc1cccc(C(=O)N[C@H]2C[C@H]3CC[C@@H](C2)N3c2ccc(C(=O)NCc3ccc(C4CCN(C)CC4)cc3)cn2)c1C` [6-[3-endo-({[2-methyl-3-(methyloxy)phenyl]carbonyl}amino)-8-azabicyclo[3.2.1]oct-8-yl]-N-{[4-(1-methylpiperidin-4-yl)phenyl]methyl}pyridine-3-carboxamide], for which the IC50 is less than 500 nM. In turn, `COc1ccc(CNC(=O)c2ccc(N3[C@@H]4CC[C@H]3C[C@@H](NC(=O)c3cccc(OC)c3C)C4)nc2)cc1` [6-[3-endo-({[2-methyl-3-(methyloxy)phenyl]carbonyl}amino)-8-azabicyclo[3.2.1]oct-8-yl]-N-{[4-(methyloxy)phenyl]methyl}pyridine-3-carboxamide] displayed an IC50 of less than 500 nM. With `COc1cccc(C(=O)N[C@H]2C[C@H]3CC[C@@H](C2)N3c2ccc(C(=O)NCc3ccc(C(F)(F)F)cc3)cn2)c1C` [6-[3-endo-({[2-methyl-3-(methyloxy)phenyl]carbonyl}amino)-8-azabicyclo[3.2.1]oct-8-yl]-N-{[4-(trifluoromethyl)phenyl]methyl}pyridine-3-carboxamide] the figure was 1000 to 2000 nM; with `COc1cccc(C(=O)N[C@H]2C[C@H]3CC[C@@H](C2)N3c2ccc(C(N)=O)cn2)c1C` [6-[3-endo-({[2-methyl-3-(methyloxy)phenyl]carbonyl}amino)-8-azabicyclo[3.2.1]oct-8-yl]pyridine-3-carboxamide], 500 to 999 nM; with `COc1cccc(C(=O)N[C@H]2C[C@H]3CC[C@@H](C2)N3c2ccc(C(=O)NCc3cccc(N4CCN(C)CC4)c3)cn2)c1C` [6-[3-endo-({[2-methyl-3-(methyloxy)phenyl]carbony}amino)-8-azabicyclo[3.2.1]oct-8-yl]-N-{[3-(4-methylpiperazin-1-yl)phenyl]methyl}pyridine-3-carboxamide], less than 500 nM.

`CSc1cccc(C(=O)NC2CC3CCC(C2)N3c2ccc(C(=O)N[C@@H](C)c3ccc(N4CCN(C)CC4)cc3)cn2)c1C` (stereo partly drawn) [6-[3-endo-({[2-methyl-3-(methylthio)phenyl]carbonyl}amino)-8-azabicyclo[3.2.1]oct-8-yl]-N-{(1S)-1-[4-(4-methylpiperazin-1-yl)phenyl]ethyl}pyridine-3-carboxamide] registered an IC50 of 500 to 999 nM.

For the molecule `COc1cccc(C(=O)N[C@H]2C[C@H]3CC[C@@H](C2)N3c2ccc(C(=O)NCc3ccccc3)cn2)c1CCCNC(C)C` [6-[3-endo-({[2-{3-[(1-methylethyl)amino]propyl}-3-(methyloxy)phenyl]carbonyl}amino)-8-azabicyclo[3.2.1]oct-8-yl]-N-(phenylmethyl)pyridine-3-carboxamide], the IC50 fell in the range of 1000 to 2000 nM.

`Cc1c(C(=O)NC2CC3CCC(C2)N3c2ccc(C(=O)N[C@@H](C)c3ccc(N4CCN(C)CC4)cc3)cn2)cccc1N(C)C` (stereo partly drawn) [6-[3-endo-({[3-(dimethylamino)-2-methylphenyl]carbonyl}amino)-8-azabicyclo[3.2.1]oct-8-yl]-N-{(1S)-1-[4-(4-methylpiperazin-1-yl)phenyl]ethyl}pyridine-3-carboxamide] came in with an IC50 of 2000 to 10000 nM. With `C=CCc1c(OC)cccc1C(=O)N[C@H]1C[C@H]2CC[C@@H](C1)N2c1ccc(C(=O)NCc2ccccc2)cn1` [6-[3-endo-({[3-(methyloxy)-2-prop-2-en-1-ylphenyl]carbonyl}amino)-8-azabicyclo[3.2.1]oct-8-yl]-N-(phenylmethyl)pyridine-3-carboxamide] the figure was 500 to 999 nM.

Consider `CCCc1c(OC)cccc1C(=O)N[C@H]1C[C@H]2CC[C@@H](C1)N2c1ccc(C(=O)NCc2ccccc2)cn1` [6-[3-endo-({[3-(methyloxy)-2-propylphenyl]carbonyl}amino)-8-azabicyclo[3.2.1]oct-8-yl]-N-(phenylmethyl)pyridine-3-carboxamide], for which the IC50 lay in the range of 2000 to 10000 nM.

`Cc1cc(CO)ccc1C(=O)N[C@H]1C[C@H]2CC[C@@H](C1)N2c1ccc(C(=O)NCc2ccccc2)cn1` [6-[3-endo-({[4-(hydroxymethyl)-2-methylphenyl]carbonyl}amino)-8-azabicyclo[3.2.1]oct-8-yl]-N-(phenylmethyl)pyridine-3-carboxamide] returned an IC50 of less than 500 nM. With `Cc1cc(CO)ccc1C(=O)N[C@H]1C[C@H]2CC[C@@H](C1)N2c1ccc(C(=O)NCc2cccnc2)cn1` [6-[3-endo-({[4-(hydroxymethyl)-2-methylphenyl]carbonyl}amino)-8-azabicyclo[3.2.1]oct-8-yl]-N-(pyridin-3-ylmethyl)pyridine-3-carboxamide] the figure was less than 500 nM; with `COc1cc(C(=O)N[C@H]2C[C@H]3CC[C@@H](C2)N3c2ccc(C(N)=O)cn2)ccc1CO` [6-[3-endo-({[4-(hydroxymethyl)-3-(methyloxy)phenyl]carbonyl}amino)-8-azabicyclo[3.2.1]oct-8-yl]pyridine-3-carboxamide], 500 to 999 nM.
